# Measurements reported in patent publication US20190002825A1, “Method for Inducing Targeted Differentiation of Human Stem Cells Toward Hepatic Cells” (TRANSCEND CYTOTHERAPY CO., LTD, priority 2015, published 2019).
# Columns and labels:
# BMP type II receptors = conditions: cited from earlier work
# [1] = tested on: activin type II receptors; conditions: cited from earlier work
# TGF-β type II receptors = TGF-β type II receptors (Homo sapiens, UniProt P37173); conditions: cited from earlier work
# ALK4 = molecular target: T1, ALK4 (Homo sapiens, UniProt P36896); conditions: cited from earlier work
# T1 sequence (P36896 24-505): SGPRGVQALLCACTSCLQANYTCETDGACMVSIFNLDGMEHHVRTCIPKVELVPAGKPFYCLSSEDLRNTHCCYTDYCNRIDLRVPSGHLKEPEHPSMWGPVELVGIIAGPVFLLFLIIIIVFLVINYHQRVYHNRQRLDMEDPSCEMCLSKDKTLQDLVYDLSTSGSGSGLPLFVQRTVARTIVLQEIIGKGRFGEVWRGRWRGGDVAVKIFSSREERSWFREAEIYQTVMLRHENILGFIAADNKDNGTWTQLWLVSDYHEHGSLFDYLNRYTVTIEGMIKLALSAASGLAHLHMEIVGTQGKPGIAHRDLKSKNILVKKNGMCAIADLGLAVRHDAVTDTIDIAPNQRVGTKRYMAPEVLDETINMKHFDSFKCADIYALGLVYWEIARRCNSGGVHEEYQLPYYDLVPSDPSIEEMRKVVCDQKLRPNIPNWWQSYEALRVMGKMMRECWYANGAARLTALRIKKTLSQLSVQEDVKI
# ALK7 = molecular target: T2, ALK7 (Homo sapiens, UniProt Q8NER5); conditions: in words; cited from earlier work
# T2 sequence (Q8NER5 21-493): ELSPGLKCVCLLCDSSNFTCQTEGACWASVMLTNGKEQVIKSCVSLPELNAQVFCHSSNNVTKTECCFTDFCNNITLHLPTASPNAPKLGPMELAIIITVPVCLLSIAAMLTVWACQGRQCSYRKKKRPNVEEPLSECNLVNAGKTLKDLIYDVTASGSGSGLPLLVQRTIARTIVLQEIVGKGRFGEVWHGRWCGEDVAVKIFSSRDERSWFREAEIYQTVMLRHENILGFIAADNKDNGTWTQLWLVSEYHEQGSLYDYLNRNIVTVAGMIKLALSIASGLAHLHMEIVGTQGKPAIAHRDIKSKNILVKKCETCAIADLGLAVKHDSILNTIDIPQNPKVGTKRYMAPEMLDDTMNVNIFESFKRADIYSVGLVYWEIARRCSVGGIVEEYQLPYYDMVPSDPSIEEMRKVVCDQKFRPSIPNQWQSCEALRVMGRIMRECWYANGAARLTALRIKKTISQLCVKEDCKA
# ALK1, ALK2, ALK3 or ALK6 = conditions: cited from earlier work
# GSK-3α = GSK-3α (Homo sapiens, UniProt P49840); conditions: cited from earlier work
# ROCK1 = ROCK1 (Homo sapiens, UniProt Q13464); conditions: cited from earlier work
# TGF-βRII = TGF-βRII (Homo sapiens, UniProt P37173); conditions: cited from earlier work
# CYP1A2 = assay type: cell-based, human
# [2] = tested on: CDC2, ERK2 and other kinases; conditions: cited from earlier work
# ROCK = conditions: cell-free assays; cited from earlier work
# [3] = tested on: human embryonic stem cells (hESCs); conditions: cited from earlier work
# ALK2, ALK3 and ALK6 = conditions: cited from earlier work
# [4] = tested on: PKC, cAMP-dependent protein kinases, MLCK and PAK; conditions: cited from earlier work
# GSK-3β = GSK-3β (Homo sapiens, UniProt P49841); conditions: cited from earlier work
# [5] = in vivo; cited from earlier work
# [6] = in vivo; cited from earlier work; remark: listed apart in the source
# [7] = tested on: p38, MAPK and other kinases; conditions: cited from earlier work
# Wnt signaling pathway = conditions: cited from earlier work
# [8] = molecular target: TGF-β receptor type II (TβRII) (Homo sapiens, UniProt P37173); conditions: cell-free assays; cited from earlier work
# Chain of TGF-β receptor type II (TβRII) (P37173 23-567): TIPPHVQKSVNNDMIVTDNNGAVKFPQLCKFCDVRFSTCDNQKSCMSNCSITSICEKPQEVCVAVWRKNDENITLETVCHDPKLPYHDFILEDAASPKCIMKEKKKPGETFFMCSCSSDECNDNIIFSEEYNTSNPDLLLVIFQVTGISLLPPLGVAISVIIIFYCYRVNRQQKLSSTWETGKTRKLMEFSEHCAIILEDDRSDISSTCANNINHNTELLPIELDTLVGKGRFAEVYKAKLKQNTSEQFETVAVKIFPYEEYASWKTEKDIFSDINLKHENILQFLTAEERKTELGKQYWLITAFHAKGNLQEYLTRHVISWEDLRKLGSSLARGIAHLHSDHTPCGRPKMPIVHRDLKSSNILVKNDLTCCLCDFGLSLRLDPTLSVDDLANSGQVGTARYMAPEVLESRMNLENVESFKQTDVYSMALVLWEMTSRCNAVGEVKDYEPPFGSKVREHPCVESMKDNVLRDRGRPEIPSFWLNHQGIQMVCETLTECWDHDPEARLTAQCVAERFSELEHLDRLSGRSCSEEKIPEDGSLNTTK
# Chain of GSK-3α (P49840 whole entry, species assumed): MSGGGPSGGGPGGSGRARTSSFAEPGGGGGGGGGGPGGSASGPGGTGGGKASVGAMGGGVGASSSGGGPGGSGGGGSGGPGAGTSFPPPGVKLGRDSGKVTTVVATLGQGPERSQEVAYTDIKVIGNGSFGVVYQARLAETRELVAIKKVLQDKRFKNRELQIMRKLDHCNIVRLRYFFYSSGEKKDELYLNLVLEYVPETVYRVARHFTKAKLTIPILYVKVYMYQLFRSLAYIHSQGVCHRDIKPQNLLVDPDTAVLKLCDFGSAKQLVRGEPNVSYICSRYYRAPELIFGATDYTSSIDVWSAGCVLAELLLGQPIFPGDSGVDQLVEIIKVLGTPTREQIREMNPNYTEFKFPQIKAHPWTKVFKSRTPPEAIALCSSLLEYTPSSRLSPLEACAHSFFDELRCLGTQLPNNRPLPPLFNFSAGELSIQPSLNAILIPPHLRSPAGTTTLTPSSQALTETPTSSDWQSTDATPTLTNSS
# Chain of ROCK1 (Q13464 whole entry): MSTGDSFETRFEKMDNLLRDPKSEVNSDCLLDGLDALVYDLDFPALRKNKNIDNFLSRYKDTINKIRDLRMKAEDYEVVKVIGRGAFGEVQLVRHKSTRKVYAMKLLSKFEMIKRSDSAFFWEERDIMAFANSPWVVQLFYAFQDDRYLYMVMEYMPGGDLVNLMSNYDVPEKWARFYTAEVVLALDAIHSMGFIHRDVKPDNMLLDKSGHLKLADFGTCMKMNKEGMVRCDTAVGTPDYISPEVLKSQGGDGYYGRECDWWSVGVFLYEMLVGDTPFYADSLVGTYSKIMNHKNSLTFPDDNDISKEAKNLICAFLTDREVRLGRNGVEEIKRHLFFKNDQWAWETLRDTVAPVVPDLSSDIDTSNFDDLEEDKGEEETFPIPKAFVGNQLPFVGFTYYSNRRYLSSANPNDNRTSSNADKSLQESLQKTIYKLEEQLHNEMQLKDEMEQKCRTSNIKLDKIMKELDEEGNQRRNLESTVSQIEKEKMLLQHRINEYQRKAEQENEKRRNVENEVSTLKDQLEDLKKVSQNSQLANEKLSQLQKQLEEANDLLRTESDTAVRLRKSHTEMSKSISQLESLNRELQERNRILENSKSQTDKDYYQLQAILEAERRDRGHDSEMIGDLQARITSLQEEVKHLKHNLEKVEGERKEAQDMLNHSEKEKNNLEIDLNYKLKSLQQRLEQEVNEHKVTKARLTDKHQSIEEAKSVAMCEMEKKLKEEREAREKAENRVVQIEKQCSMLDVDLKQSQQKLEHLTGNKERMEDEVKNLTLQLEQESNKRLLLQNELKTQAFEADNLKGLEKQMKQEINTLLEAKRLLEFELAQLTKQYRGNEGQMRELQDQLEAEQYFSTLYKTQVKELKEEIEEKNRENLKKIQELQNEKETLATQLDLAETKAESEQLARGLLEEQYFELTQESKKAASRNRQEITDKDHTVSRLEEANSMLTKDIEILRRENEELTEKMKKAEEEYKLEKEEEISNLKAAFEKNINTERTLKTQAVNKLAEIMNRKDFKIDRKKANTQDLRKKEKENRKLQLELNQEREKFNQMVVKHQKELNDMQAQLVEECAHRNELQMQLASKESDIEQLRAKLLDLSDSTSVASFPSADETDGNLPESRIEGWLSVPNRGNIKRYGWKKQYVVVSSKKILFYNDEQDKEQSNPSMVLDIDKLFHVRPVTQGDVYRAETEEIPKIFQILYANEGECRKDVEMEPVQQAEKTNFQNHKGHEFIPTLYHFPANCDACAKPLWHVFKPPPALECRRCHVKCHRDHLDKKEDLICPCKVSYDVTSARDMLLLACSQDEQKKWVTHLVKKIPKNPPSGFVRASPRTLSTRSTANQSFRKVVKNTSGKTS
# Chain of GSK-3β (P49841 whole entry): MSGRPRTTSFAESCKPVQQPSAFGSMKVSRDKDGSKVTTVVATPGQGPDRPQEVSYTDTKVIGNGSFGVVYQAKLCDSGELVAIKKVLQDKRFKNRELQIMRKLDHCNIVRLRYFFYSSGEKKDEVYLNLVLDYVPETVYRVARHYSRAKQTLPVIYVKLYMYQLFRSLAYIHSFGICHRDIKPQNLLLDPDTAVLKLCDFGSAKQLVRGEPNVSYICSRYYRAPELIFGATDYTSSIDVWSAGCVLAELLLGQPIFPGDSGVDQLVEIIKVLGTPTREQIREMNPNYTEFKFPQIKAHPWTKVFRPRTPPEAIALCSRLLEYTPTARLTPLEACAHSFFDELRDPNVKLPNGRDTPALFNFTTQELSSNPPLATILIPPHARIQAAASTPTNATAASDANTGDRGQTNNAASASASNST
# Chain of TGF-βRII (P37173 23-567): as the sequence (P37173 23-567) above
# Chain of TGF-β type II receptors (P37173 23-567): as above
compound,measurement,setting,value
O=C(NC1CCOCC1)c1ccc(-c2cc(-c3c[nH]nc3-c3ccccn3)ccn2)cc1 [GW788388],inhibition of the activity of BMP type II receptors,BMP type II receptors,does not inhibit
same,inhibition of the activity of activin type II receptors,[1],inhibits
same,inhibition of the activity of TGF-β type II receptors,TGF-β type II receptors,inhibits
Cc1cccc(-c2[nH]c(C(C)(C)C)nc2-c2ccc3c(c2)OCO3)n1 [SB505124],IC50,ALK4; cell-free assays where stated,129 nM
same,inhibition of ALK7,ALK7,inhibits
same,"inhibition of ALK1, ALK2, ALK3 or ALK6","ALK1, ALK2, ALK3 or ALK6",does not inhibit
CHIR-98014,IC50,GSK-3α,0.65 nM
O=C(NCc1cccc(O)c1)Nc1nc(-c2ccncc2)cs1 [RKI-1447],IC50,ROCK1,14.5 nM
SD-208,times more selective on TGF-βRI than on TGF-βRII,TGF-βRII,≥ 100 times
COc1ccc2[nH]c([S+]([O-])Cc3ncc(C)c(OC)c3C)nc2c1 (centres unmarked) [omeprazole],activity of P450 enzyme (CYP1A2) when induced,CYP1A2,enhanced
Cc1cnc(-c2cnc(NCCNc3ccc(C#N)cn3)nc2-c2ccc(Cl)cc2Cl)[nH]1 [CHIR-99021],"times more inhibitory on GSK-3α and GSK-3β than on CDC2, ERK2 and other kinases",[2],500 times
O=C(NCc1ccccc1)c1csc(Nc2ccncn2)n1 [Thiazovivin],IC50,ROCK,500 nM
same,survival of human embryonic stem cells (hESCs) after single cell isolation,[3],promotes the survival
Cc1cccc(-c2[nH]c(C(C)(C)C)nc2-c2ccc3nccnc3c2)n1 [SB525334],"effect on ALK4, times lower than on ALK5",ALK4,4 times
same,"activity on ALK2, ALK3 and ALK6","ALK2, ALK3 and ALK6",no activity
C[C@@H](N)[C@H]1CC[C@H](C(=O)Nc2ccncc2)CC1 [Y-27632],"times more inhibitory on ROCK1 than on other kinases including PKC, cAMP-dependent protein kinases, MLCK and PAK",[4],≥ 200 times
Nc1cccc(-c2cc3c(Oc4cccc(O)c4)ncnc3[nH]2)c1 [TWS119],IC50,GSK-3β,30 nM
N#Cc1ccc2[nH]c(O)c(-c3ccc(CN4CCOCC4)cn3)c2c1 [AZD1080],oral bioavailability,[5],orally bioavailable
same,permeability to the brain,[6],permeable to the brain
Cc1cccc(-c2[nH]c(CNc3ccccc3F)nc2-c2ccc3ncnn3c2)n1 [EW-7197],oral bioavailability,[5],orally bioavailable
NC(=O)c1ccc(-c2nc(-c3ccc4c(c3)OCO4)c(-c3ccccn3)[nH]2)cc1 [SB-431542],"times more inhibitory on ALK5 than on p38, MAPK and other kinases",[7],100 times
CN1CCN(S(=O)(=O)c2ccc(-c3cnc(N)c(C(=O)Nc4cccnc4)n3)cc2)CC1 [AZD2858],effect on the Wnt signaling pathway,Wnt signaling pathway,enhances
c1ccc(-c2nn3c(c2-c2ccnc4cc(OCCN5CCOCC5)ccc24)CCC3)nc1 [LY2109761],Ki,[8],300 nM
